Assay results reported in ChEMBL document CHEMBL1201862, “PubChem BioAssay data set” (2004).
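The compound was tested at five concentrations on cells cultured in 96-well plates, with a 48-hour exposure period. GI50 marks 50% less growth.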 Activity calls are given as the source filed them. Cut-off read from the data, not from the text of the source: active = GI50 up to about 1.1 µM and inactive = higher.

Columns and labels:
Assay in all cases: NCI anticancer screen, dose series, 48 h
[1] = test system: SK-OV-3
[2] = test system: M14
[3] = test system: HL-60
[4] = test system: RXF 393
[5] = test system: OVCAR-8
[6] = test system: TK-10
[7] = test system: MDA-N
[8] = test system: UACC-62
[9] = test system: Hs-578T
[10] = test system: Malme-3M
[11] = test system: SN12C
[12] = test system: COLO 205
[13] = test system: MDA-MB-231
[14] = test system: A549
[15] = test system: OVCAR-4
[16] = test system: SNB-19
[17] = test system: K562
[18] = test system: SR
[19] = test system: SK-MEL-28
[20] = test system: HCC 2998

SMILES | GI50 [1] | GI50 [2] | GI50 [3] | GI50 [4] | GI50 [5] | GI50 [6] | GI50 [7] | GI50 [8] | GI50 [9] | GI50 [10] | GI50 [11] | GI50 [12] | GI50 [13] | GI50 [14] | GI50 [15] | GI50 [16] | GI50 [17] | GI50 [18] | GI50 [19] | GI50 [20]
N#Cc1cc(-c2nc3ccc(F)cc3s2)ccc1N | 21.8 µM (inactive) | > 100 µM (inactive) | > 100 µM (inactive) | > 100 µM (inactive) | > 100 µM (inactive) | > 100 µM (inactive) | 22.1 µM (inactive) | > 100 µM (inactive) | > 100 µM (inactive) | 35.3 µM (inactive) | > 100 µM (inactive) | 28.9 µM (inactive) | > 100 µM (inactive) | > 100 µM (inactive) | > 100 µM (inactive) | > 100 µM (inactive) | 80.4 µM (inactive) | – | – | –
NC(CC(=O)Nc1cc(C(F)(F)F)ccc1Cl)=NO | > 100 µM (inactive) | > 100 µM (inactive) | > 100 µM (inactive) | > 100 µM (inactive) | > 100 µM (inactive) | > 100 µM (inactive) | > 100 µM (inactive) | > 100 µM (inactive) | > 100 µM (inactive) | > 100 µM (inactive) | > 100 µM (inactive) | > 100 µM (inactive) | > 100 µM (inactive) | > 100 µM (inactive) | > 100 µM (inactive) | > 100 µM (inactive) | > 100 µM (inactive) | > 100 µM (inactive) | > 100 µM (inactive) | –
Cc1ccc(S(=O)(=O)N2CCCSCCSCCCN(S(=O)(=O)c3ccc(C)cc3)CC2)cc1 | > 100 µM (inactive) | > 100 µM (inactive) | – | > 100 µM (inactive) | > 100 µM (inactive) | > 100 µM (inactive) | > 100 µM (inactive) | > 100 µM (inactive) | > 100 µM (inactive) | – | > 100 µM (inactive) | > 100 µM (inactive) | > 100 µM (inactive) | > 100 µM (inactive) | > 100 µM (inactive) | > 100 µM (inactive) | – | – | > 100 µM (inactive) | > 100 µM (inactive)
Cc1cc(C)n(CN(CCCCO)Cn2nc(C)cc2C)n1 | > 100 µM (inactive) | 18.5 µM (inactive) | 23.3 µM (inactive) | 18.8 µM (inactive) | 19.2 µM (inactive) | 73.8 µM (inactive) | 17.5 µM (inactive) | 19.1 µM (inactive) | > 100 µM (inactive) | 22.9 µM (inactive) | 26 µM (inactive) | 17.2 µM (inactive) | 29.9 µM (inactive) | 49.2 µM (inactive) | 24.7 µM (inactive) | 57.1 µM (inactive) | 19.9 µM (inactive) | 4.82 µM (inactive) | 17.7 µM (inactive) | –
CCN1C(=O)C(=C/C=C/C=C2/N(C)c3ccccc3C2(C)C)C(=O)N(CC)C1=S | 36.3 µM (inactive) | > 100 µM (inactive) | > 100 µM (inactive) | 39.6 µM (inactive) | > 100 µM (inactive) | > 100 µM (inactive) | > 100 µM (inactive) | > 100 µM (inactive) | > 100 µM (inactive) | > 100 µM (inactive) | > 100 µM (inactive) | > 100 µM (inactive) | > 100 µM (inactive) | > 100 µM (inactive) | 33 µM (inactive) | > 100 µM (inactive) | 58.6 µM (inactive) | > 10 µM (inactive) | – | –
Cc1ccc(-[n+]2cc([O-])on2)cc1 | – | > 100 µM (inactive) | > 100 µM (inactive) | > 100 µM (inactive) | > 100 µM (inactive) | > 100 µM (inactive) | > 100 µM (inactive) | > 100 µM (inactive) | > 100 µM (inactive) | > 100 µM (inactive) | > 100 µM (inactive) | – | > 100 µM (inactive) | > 100 µM (inactive) | > 100 µM (inactive) | > 100 µM (inactive) | > 100 µM (inactive) | > 100 µM (inactive) | > 100 µM (inactive) | –
Cc1nnc2n1N=C(c1cc(F)c(Cl)cc1Cl)/C(=C/c1ccc3c(c1)OCO3)S2 | > 100 µM (inactive) | > 100 µM (inactive) | 40.4 µM (inactive) | 51.3 µM (inactive) | 65.3 µM (inactive) | > 100 µM (inactive) | 39.3 µM (inactive) | 62.8 µM (inactive) | 71.6 µM (inactive) | > 100 µM (inactive) | 53.7 µM (inactive) | > 100 µM (inactive) | > 100 µM (inactive) | > 100 µM (inactive) | 51.6 µM (inactive) | > 100 µM (inactive) | > 100 µM (inactive) | – | > 100 µM (inactive) | 48.4 µM (inactive)
c1ccc(CN2CCCN3CCN(CCCN(Cc4ccccc4)CC3)CC2)cc1 | > 100 µM (inactive) | 38 µM (inactive) | 24.7 µM (inactive) | > 100 µM (inactive) | 50.9 µM (inactive) | 55.6 µM (inactive) | 30.5 µM (inactive) | 35.1 µM (inactive) | > 100 µM (inactive) | 0.227 µM (active) | 31.5 µM (inactive) | 25.3 µM (inactive) | 38.2 µM (inactive) | 69.5 µM (inactive) | 35.6 µM (inactive) | 35.5 µM (inactive) | 32 µM (inactive) | 43 µM (inactive) | 39.4 µM (inactive) | –
C/C(=N\c1c2ccccc2nc2ccccc12)N(C)C | 22.8 µM (inactive) | 11.5 µM (inactive) | 3.28 µM (inactive) | 23.8 µM (inactive) | 13.3 µM (inactive) | 21.9 µM (inactive) | 21.6 µM (inactive) | 15.2 µM (inactive) | 22 µM (inactive) | 32.9 µM (inactive) | – | 12.6 µM (inactive) | 14.6 µM (inactive) | 28.2 µM (inactive) | 19 µM (inactive) | 34 µM (inactive) | 3.91 µM (inactive) | 3.47 µM (inactive) | 18.4 µM (inactive) | –
O=C1C=C(c2c(-c3ccccc3)[nH]c3ccccc23)C(=O)N1c1ccccc1 | 24.8 µM (inactive) | 11.4 µM (inactive) | 3.96 µM (inactive) | 3.8 µM (inactive) | 4.46 µM (inactive) | 12.7 µM (inactive) | 3.89 µM (inactive) | 10.7 µM (inactive) | 4.15 µM (inactive) | 11.5 µM (inactive) | 6.65 µM (inactive) | 8.3 µM (inactive) | 11.3 µM (inactive) | 14.6 µM (inactive) | – | 21.9 µM (inactive) | 7.41 µM (inactive) | – | 13.3 µM (inactive) | 7.94 µM (inactive)
O=C(NNC(=O)c1ccccc1O)c1cccs1 | 24.4 µM (inactive) | 35.5 µM (inactive) | 50 µM (inactive) | > 100 µM (inactive) | 32.1 µM (inactive) | > 100 µM (inactive) | > 100 µM (inactive) | 49.8 µM (inactive) | > 100 µM (inactive) | 22.1 µM (inactive) | > 100 µM (inactive) | 46.5 µM (inactive) | 78.2 µM (inactive) | 54.1 µM (inactive) | > 100 µM (inactive) | > 100 µM (inactive) | > 100 µM (inactive) | 71 µM (inactive) | > 100 µM (inactive) | –
CC1CCOc2ccc(cc2)/C=N\c2ccc(cc2)CCc2ccc(cc2)/N=C\c2ccc(cc2)OCC1 | – | > 100 µM (inactive) | – | 35.6 µM (inactive) | > 100 µM (inactive) | – | > 100 µM (inactive) | > 100 µM (inactive) | > 100 µM (inactive) | > 100 µM (inactive) | > 100 µM (inactive) | > 100 µM (inactive) | > 100 µM (inactive) | > 100 µM (inactive) | > 100 µM (inactive) | > 100 µM (inactive) | > 100 µM (inactive) | > 100 µM (inactive) | > 100 µM (inactive) | > 100 µM (inactive)
NC(=O)NC1C(c2ccccc2)=C1c1ccccc1 | 15.6 µM (inactive) | 19.1 µM (inactive) | 31.6 µM (inactive) | 3.41 µM (inactive) | 12.5 µM (inactive) | 18 µM (inactive) | 14.5 µM (inactive) | 9.23 µM (inactive) | 27.6 µM (inactive) | 21.1 µM (inactive) | 13.6 µM (inactive) | 13 µM (inactive) | 12.6 µM (inactive) | 27.4 µM (inactive) | 15.3 µM (inactive) | 34.8 µM (inactive) | 15.4 µM (inactive) | – | 17.1 µM (inactive) | 16.5 µM (inactive)
CSc1nc(NC2CC2)c2c(n1)Sc1nc3ccccc3n1N=C2 | 26.5 µM (inactive) | 39.5 µM (inactive) | – | – | 10.1 µM (inactive) | 25.1 µM (inactive) | 40.2 µM (inactive) | 17.9 µM (inactive) | 0.9 µM (active) | 16.7 µM (inactive) | 8.55 µM (inactive) | 41.9 µM (inactive) | 17.8 µM (inactive) | 18.7 µM (inactive) | 16.7 µM (inactive) | 34.4 µM (inactive) | > 100 µM (inactive) | > 100 µM (inactive) | > 100 µM (inactive) | 27.5 µM (inactive)
CN(C)Cc1ccc(-c2cc3onc(-c4ccccc4)c3c(=O)n2C)cc1 | 48.8 µM (inactive) | 15.1 µM (inactive) | 0.711 µM (active) | – | 47.5 µM (inactive) | 24.1 µM (inactive) | 17.6 µM (inactive) | 25.9 µM (inactive) | 19.6 µM (inactive) | 29 µM (inactive) | 55.6 µM (inactive) | 20 µM (inactive) | 28.5 µM (inactive) | 16.4 µM (inactive) | 84.9 µM (inactive) | 57.8 µM (inactive) | 17.7 µM (inactive) | 11.7 µM (inactive) | 18.9 µM (inactive) | –
